In patent publication US11691969B2, “Pyridazinones as PARP7 inhibtors” (Ribon Therapeutics, Inc., priority 2019, dated 2023):

biological target: PARP7 (Homo sapiens (Human), UniProt Q7Z3E1); test: TR-FRET assay: displacement of biotinylated Probe A from the TIPARP active site (Enzymatic Assay for Inhibition of PARP7); format: binding; conditions: TIPARP 6 nM, Probe A 2 nM, 25° C.
Method: Example A. Enzymatic Assay for Inhibition of PARP7
Displacement of Probe A, a biotinylated probe binding to the TIPARP active site, was measured using a time-resolved fluorescence energy transfer (TR-FRET) assay. 20 nL of a dose response curve of each test compound was spotted in black 384-well polystyrene proxiplates (Perkin Elmer) using a Mosquito (TTP Labtech). Reactions were performed in a 8 μl volume by adding 6 μL of TIPARP and Probe A in assay buffer (20 mM HEPES pH=8, 100 mM NaCl, 0.1% bovine serum albumin, 2 mM DTT and 0.002% Tween20), incubating with test compound at 25° C. for 30 min, then adding 2 μL of ULight-anti 6×His and LANCE Eu-W1024 labeled streptavidin (Perkin Elmer). The final concentrations of TIPARP and Probe A were 6 nM and 2 nM, respectively. The final concentration of ULight-anti 6×His and LANCE Eu-W1024 labeled streptavidin were 4 nM and 0.25 nM, respectively. Reactions were incubated at 25° C. for an additional 30 min, then read on an Envision platereader equipped with a LANCE/DELFIA top mirror (Perkin Elmer) using excitation of 320 nm and emission of 615 nm and […] with a […]. The ratio of the 665/615 nm emission were calculated for each well to determine the amount of complex of TIPARP and Probe Ain each well. Control wells containing a negative control of 0.25% DMSO vehicle or a positive control of 100 μM 5-(5-(piperidin-4-yloxy)isoindolin-2-yl)-4-(trifluoromethyl)pyridazin-3(2H)-one were used to calculate the % inhibition as described below:
[formula] where TRFcmpd is the TR-FRET ratio from the compound treated well, TRFmin is the TR-FRET ratio from the 5-(5-(piperidin-4-yloxy)isoindolin-2-yl)-4-(trifluoromethyl)pyridazin-3(2H)-one—treated positive control well and TRFmax is the TR-FRET ratio from the DMSO-treated negative control well. The % inhibition values were plotted as a function of compound concentration and the following 4-parameter fit was applied to derive the IC50 values:
[formula] where top and bottom are normally allowed to float, but may be fixed at 100 or 0 respectively in a 3-parameter fit. The Hill Coefficient is normally allowed to float but may also be fixed at 1 in a 3-parameter fit. Y is the % inhibition and X is the compound concentration. Synthesis of Probe A

PARP7, sequence (Q7Z3E1 whole entry): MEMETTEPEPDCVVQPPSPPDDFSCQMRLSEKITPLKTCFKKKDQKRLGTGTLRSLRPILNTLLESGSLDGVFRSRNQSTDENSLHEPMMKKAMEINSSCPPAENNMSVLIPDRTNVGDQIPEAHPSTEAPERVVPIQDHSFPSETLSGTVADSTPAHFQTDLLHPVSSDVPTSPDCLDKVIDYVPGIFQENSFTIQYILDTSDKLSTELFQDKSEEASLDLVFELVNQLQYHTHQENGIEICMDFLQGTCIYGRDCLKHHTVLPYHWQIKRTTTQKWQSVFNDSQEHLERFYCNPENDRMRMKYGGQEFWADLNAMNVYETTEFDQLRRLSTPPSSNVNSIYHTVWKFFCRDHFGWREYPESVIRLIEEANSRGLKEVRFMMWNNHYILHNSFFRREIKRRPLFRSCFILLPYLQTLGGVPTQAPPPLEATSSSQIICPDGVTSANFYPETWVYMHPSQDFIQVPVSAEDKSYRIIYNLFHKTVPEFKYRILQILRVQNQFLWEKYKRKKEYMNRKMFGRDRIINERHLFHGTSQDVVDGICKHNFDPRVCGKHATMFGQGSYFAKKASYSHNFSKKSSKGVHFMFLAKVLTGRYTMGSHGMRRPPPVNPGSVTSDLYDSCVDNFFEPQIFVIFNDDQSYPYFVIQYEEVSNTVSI

SMILES | IC50
C[C@@H](CO[C@@H]1CCN(C2CCN(c3cnc(C(F)(F)F)cn3)CC2)C1=O)Nc1cn[nH]c(=O)c1C(F)(F)F [Example 13B, 5-(((S)-1-(((R)-2-oxo-1-(1-(5-(trifluoromethyl)pyrazin-2-yl)piperidin-4-yl)pyrrolidin-3-yl)oxy)propan-2-yl)amino)-4-(trifluoromethyl)pyridazin-3(2H)-one] | < 100 nM
C[C@@H](CO[C@@H]1CCN(C2CCN(c3cnc(C(F)(F)F)cn3)CC2)C1=O)Oc1cn[nH]c(=O)c1C(F)(F)F [Example 31B, 5-(((S)-1-(((R)-2-oxo-1-(1-(5-(trifluoromethyl)pyrazin-2-yl)piperidin-4-yl)pyrrolidin-3-yl)oxy)propan-2-yl)oxy)-4-(trifluoromethyl)pyridazin-3(2H)-one] | 100 to 1000 nM
COC[C@@H](CO[C@H]1CCN(C2CCN(c3ncc(C(F)(F)F)cn3)CC2)C1=O)Oc1cn[nH]c(=O)c1C(F)(F)F [Example 51A, 5-(((S)-1-methoxy-3-(((S)-2-oxo-1-(1-(5-(trifluoromethyl)pyrimidin-2-yl)piperidin-4-yl)pyrrolidin-3-yl)oxy)propan-2-yl)oxy)-4-(trifluoromethyl)pyridazin-3(2H)-one] | 100 to 1000 nM
COC[C@@H](CO[C@@H]1CCN(C2CCN(c3ccc(C#N)cn3)CC2)C1=O)Oc1cn[nH]c(=O)c1C(F)(F)F [Example 50B, 6-(4-((R)-3-((S)-3-methoxy-2-((6-oxo-5-(trifluoromethyl)-1,6-dihydropyridazin-4-yl)oxy)propoxy)-2-oxopyrrolidin-1-yl)piperidin-1-yl)nicotinonitrile] | < 100 nM
C[C@@H](O)[C@@H](CO[C@@H]1CCN(C2CCN(c3ncc(C(F)(F)F)cn3)CC2)C1=O)Nc1cn[nH]c(=O)c1C(F)(F)F [Example 67, 5-(((2R,3R)-3-hydroxy-1-(((R)-2-oxo-1-(1-(5-(trifluoromethyl)pyrimidin-2-yl)piperidin-4-yl)pyrrolidin-3-yl)oxy)butan-2-yl)amino)-4-(trifluoromethyl)pyridazin-3(2H)-one] | < 100 nM
N#Cc1ccc(N2CCC(N3CC[C@@H](OCCNc4cn[nH]c(=O)c4C(F)(F)F)C3=O)CC2)nc1 [Example 36A] | < 100 nM
O=C1[C@H](OC[C@H](CNCC(F)(F)F)Nc2cn[nH]c(=O)c2C(F)(F)F)CCN1C1CCN(c2ncc(C(F)(F)F)cn2)CC1 [Example 62, 5-(((S)-1-(((R)-2-oxo-1-(1-(5-(trifluoromethyl)pyrimidin-2-yl)piperidin-4-yl)pyrrolidin-3-yl)oxy)-3-((2,2,2-trifluoroethyl)amino)propan-2-yl)amino)-4-(trifluoromethyl)pyridazin-3(2H)-one] | < 100 nM
COC[C@@H](CO[C@@H]1CCN(C2CCN(c3ncc(C(F)(F)F)cn3)CC2)C1=O)Nc1cn[nH]c(=O)c1C(F)(F)F [Example 19B, 5-(((S)-1-methoxy-3-(((R)-2-oxo-1-(1-(5-(trifluoromethyl)pyrimidin-2-yl)piperidin-4-yl)pyrrolidin-3-yl)oxy)propan-2-yl)amino)-4-(trifluoromethyl)pyridazin-3(2H)-one] | < 100 nM
N#Cc1ccc(N2CCC(N3CC[C@H](OCCNc4cn[nH]c(=O)c4C(F)(F)F)C3=O)CC2)nc1 [Example 36B] | < 100 nM
C[C@@H](CO[C@@H]1CCN(C2CCN(c3ncc(C(F)F)cn3)CC2)C1=O)Nc1cn[nH]c(=O)c1C(F)(F)F [Example 15B, 5-(((S)-1-(((R)-1-(1-(5-(difluoromethyl)pyrimidin-2-yl)piperidin-4-yl)-2-oxopyrrolidin-3-yl)oxy)propan-2-yl)amino)-4-(trifluoromethyl)pyridazin-3(2H)-one] | < 100 nM
C[C@@H](CO[C@@H]1CCN([C@H]2CCN(c3ncc(C(F)(F)F)cn3)C[C@H]2O)C1=O)Nc1cn[nH]c(=O)c1C(F)(F)F [Example 60, 5-(((S)-1-(((R)-1-((3R,4S)-3-hydroxy-1-(5-(trifluoromethyl)pyrimidin-2-yl)piperidin-4-yl)-2-oxopyrrolidin-3-yl)oxy)propan-2-yl)amino)-4-(trifluoromethyl)pyridazin-3(2H)-one] | < 100 nM
